Five molecules from patent publication US9993000B2, “Isosorbide ether derivatives with preservation activity” (BASF SE, priority 2015, dated 2018) can be followed below.

Some results are limits rather than exact numbers.

The subject of one experiment is Malassezia furfur. Put plainly: Minimum Inhibitory Concentration (MIC) according to DIN 58 940. The class given is cell-based. Conditions: Malasse zia furfur. The text has this: (§1) MIC: Determination of Minimum Inhibitory Concentration (MIC) according to DIN 58 940
`CCCCCCCCOC1COC2C(OCCCCCCCC)COC12` (stereo not drawn) [Comperative compound (1), reference compound]: the MIC is recorded as >10,000 ppm.

As to `CCCCCCCCOC1COC2C(O)COC12` (stereo not drawn) [Compound (1)], the MIC is on record as <1,000 ppm.

On to `CCCCCCCCCCCCOC1COC2C(O)COC12` (stereo not drawn) [Compound (2)], for which the MIC was 2,500 ppm.

For `CCCCCCCCC(O)COC1COC2C(O)COC12` (stereo not drawn) [Compound (3)], the MIC is reported as not above 2500 ppm.

Take `CCCCCCCCCCC(O)COC1COC2C(O)COC12` (stereo not drawn) [Compound (4)]: the MIC is reported as not above 20 ppm.

A further experiment relates to Pseudomonas aeruginosa. Described as above. The class given is cell-based.
Settings: not given
Description: as §1
Turning to `CCCCCCCCOC1COC2C(OCCCCCCCC)COC12` (stereo not drawn) [Comperative compound (1), reference compound], the MIC was >10,000 ppm.

On to `CCCCCCCCOC1COC2C(O)COC12` (stereo not drawn) [Compound (1)], for which the MIC is reported as <1,000 ppm.

Turning to `CCCCCCCCCCCCOC1COC2C(O)COC12` (stereo not drawn) [Compound (2)], the MIC was >10,000 ppm.

As for `CCCCCCCCC(O)COC1COC2C(O)COC12` (stereo not drawn) [Compound (3)], the MIC is <1,000 ppm.

As for `CCCCCCCCCCC(O)COC1COC2C(O)COC12` (stereo not drawn) [Compound (4)], the MIC was <1,000 ppm.

The next experiment deals with Propionibacterium acnes. The description is as above.
Settings: not given
The class given is cell-based.
Description: as §1
With `CCCCCCCCOC1COC2C(OCCCCCCCC)COC12` (stereo not drawn) [Comperative compound (1), reference compound], the MIC is >10,000 ppm.

Molecule `CCCCCCCCOC1COC2C(O)COC12` (stereo not drawn) [Compound (1)] had an MIC of less than 500 ppm.

`CCCCCCCCCCCCOC1COC2C(O)COC12` (stereo not drawn) [Compound (2)] had an MIC not above 20 ppm.

For the molecule `CCCCCCCCC(O)COC1COC2C(O)COC12` (stereo not drawn) [Compound (3)], the MIC is given as less than 50 ppm.

In the case of `CCCCCCCCCCC(O)COC1COC2C(O)COC12` (stereo not drawn) [Compound (4)], the MIC was less than 100 ppm.

Another experiment concerns Escherichia coli. The experiment is described as above.
Settings: not given
In kind it is cell-based.
Description: as §1
For `CCCCCCCCOC1COC2C(OCCCCCCCC)COC12` (stereo not drawn) [Comperative compound (1), reference compound], the MIC is on record as >10,000 ppm.

In the case of `CCCCCCCCOC1COC2C(O)COC12` (stereo not drawn) [Compound (1)], the MIC is on record as <1,000 ppm.

Turning to `CCCCCCCCCCCCOC1COC2C(O)COC12` (stereo not drawn) [Compound (2)], the MIC is recorded as >10,000 ppm.

As to `CCCCCCCCC(O)COC1COC2C(O)COC12` (stereo not drawn) [Compound (3)], the MIC is <2,000 ppm.

For the molecule `CCCCCCCCCCC(O)COC1COC2C(O)COC12` (stereo not drawn) [Compound (4)], the MIC is reported as <2,000 ppm.

The subject of the next experiment is Aspergillus brasiliensis. The experiment is described as above. In kind it is cell-based. Conditions: Asperigillus brasiliensis.
Description: as §1
Consider `CCCCCCCCOC1COC2C(OCCCCCCCC)COC12` (stereo not drawn) [Comperative compound (1), reference compound], for which the MIC is given as >10,000 ppm.

`CCCCCCCCOC1COC2C(O)COC12` (stereo not drawn) [Compound (1)] yielded an MIC of less than 200 ppm.

In turn, `CCCCCCCCCCCCOC1COC2C(O)COC12` (stereo not drawn) [Compound (2)] returned an MIC not above 20 ppm.

In the case of `CCCCCCCCC(O)COC1COC2C(O)COC12` (stereo not drawn) [Compound (3)], the MIC is given as less than 1000 ppm.

Take `CCCCCCCCCCC(O)COC1COC2C(O)COC12` (stereo not drawn) [Compound (4)]: the MIC was less than 200 ppm.

In another experiment the test system is Staphylococcus aureus. The experiment is described as above. In kind it is cell-based.
Settings: not given
Description: as §1
As to `CCCCCCCCOC1COC2C(OCCCCCCCC)COC12` (stereo not drawn) [Comperative compound (1), reference compound], the MIC is >10,000 ppm.

Take `CCCCCCCCOC1COC2C(O)COC12` (stereo not drawn) [Compound (1)]: the MIC is less than 500 ppm.

`CCCCCCCCCCCCOC1COC2C(O)COC12` (stereo not drawn) [Compound (2)]: the MIC is given as less than 50 ppm.

`CCCCCCCCC(O)COC1COC2C(O)COC12` (stereo not drawn) [Compound (3)] displayed an MIC of less than 500 ppm.

`CCCCCCCCCCC(O)COC1COC2C(O)COC12` (stereo not drawn) [Compound (4)] returned an MIC of less than 100 ppm.

The next experiment has as its system Staphylococcus epidermis. The description is as above. In kind it is cell-based.
Settings: not given
Description: as §1
`CCCCCCCCOC1COC2C(OCCCCCCCC)COC12` (stereo not drawn) [Comperative compound (1), reference compound] yielded an MIC of less than 200 ppm.

In turn, `CCCCCCCCOC1COC2C(O)COC12` (stereo not drawn) [Compound (1)] returned an MIC of less than 100 ppm.

The molecule `CCCCCCCCCCCCOC1COC2C(O)COC12` (stereo not drawn) [Compound (2)] yielded an MIC not above 20 ppm.

`CCCCCCCCC(O)COC1COC2C(O)COC12` (stereo not drawn) [Compound (3)] had an MIC not above 20 ppm.

Take `CCCCCCCCCCC(O)COC1COC2C(O)COC12` (stereo not drawn) [Compound (4)]: the MIC was not above 20 ppm.

For the next experiment, the system named is Brevibacterium epidermis. The experiment is described as above. The class given is cell-based.
Settings: not given
Description: as §1
With `CCCCCCCCOC1COC2C(OCCCCCCCC)COC12` (stereo not drawn) [Comperative compound (1), reference compound], the MIC is given as >10,000 ppm.

In turn, `CCCCCCCCOC1COC2C(O)COC12` (stereo not drawn) [Compound (1)] registered an MIC of less than 500 ppm.

`CCCCCCCCCCCCOC1COC2C(O)COC12` (stereo not drawn) [Compound (2)] showed an MIC not above 20 ppm.

Turning to `CCCCCCCCC(O)COC1COC2C(O)COC12` (stereo not drawn) [Compound (3)], the MIC is on record as not above 200 ppm.

As to `CCCCCCCCCCC(O)COC1COC2C(O)COC12` (stereo not drawn) [Compound (4)], the MIC is recorded as not above 20 ppm.

In a further experiment the test system is Candida albicans. The experiment is described as above. The class given is cell-based.
Settings: not given
Description: as §1
Regarding `CCCCCCCCOC1COC2C(OCCCCCCCC)COC12` (stereo not drawn) [Comperative compound (1), reference compound], the MIC is >10,000 ppm.

`CCCCCCCCOC1COC2C(O)COC12` (stereo not drawn) [Compound (1)] returned an MIC of less than 50 ppm.

`CCCCCCCCCCCCOC1COC2C(O)COC12` (stereo not drawn) [Compound (2)] returned an MIC not above 20 ppm.

`CCCCCCCCC(O)COC1COC2C(O)COC12` (stereo not drawn) [Compound (3)] displayed an MIC not above 100 ppm.

With `CCCCCCCCCCC(O)COC1COC2C(O)COC12` (stereo not drawn) [Compound (4)], the MIC is recorded as not above 20 ppm.
